Reference: ChEMBL document CHEMBL5352436, “Triterpenoid pyrazines and pyridines - Synthesis, cytotoxicity, mechanism of action, preparation of prodrugs” (Eur J Med Chem, 2022)
pIC50: −log10 of the molar value. Activity calls are given as the source filed them. The calls are words filed in the database; no cut-off is given here.

Tests used:
[1] = Drug localization in human CCRF-CEM cells assessed as MT-CO2 signal at 10 uM incubated for 4 hrs by click reaction analysis; assay type: ADME, cell-based
K562 = assay: Cytotoxicity against human K562 cells assessed as reduction in cell viability incubated for 72 hrs by MTS assay; assay type: functional, cell-based; details: K562, 72 h
[2] = Cytotoxicity against human HCT116-p53-null cells assessed as reduction in cell viability incubated for 72 hrs by MTS assay; assay type: functional, cell-based
[3] = Cytotoxicity against human MRC5 cells assessed as reduction in cell viability incubated for 72 hrs by MTS assay; assay type: toxicity, cell-based
[4] = Cytotoxicity against human K562-Tax cells assessed as reduction in cell viability incubated for 72 hrs by MTS assay; assay type: functional, cell-based
CCRF-CEM [5] = assay: Cytotoxicity against human CCRF-CEM cells assessed as reduction in cell viability incubated for 72 hrs by MTS assay; assay type: functional, cell-based
A549 = assay: Cytotoxicity against human A549 cells assessed as reduction in cell viability incubated for 72 hrs by MTS assay; assay type: functional, cell-based; details: A549, 72 h
CEM-DNR = assay: Cytotoxicity against human CEM-DNR cells assessed as reduction in cell viability incubated for 72 hrs by MTS assay; assay type: functional, cell-based
HCT-116 [6] = assay: Cytotoxicity against human HCT-116 cells assessed as reduction in cell viability incubated for 72 hrs by MTS assay; assay type: functional, cell-based; details: HCT-116, 72 h
[7] = Cytotoxicity against human BJ cells assessed as reduction in cell viability incubated for 72 hrs by MTS assay; assay type: toxicity, cell-based
U2OS = assay: Cytotoxicity against human U2OS cells assessed as reduction in cell viability incubated for 72 hrs by MTS assay; assay type: functional, cell-based
[8] = Chemical stability in PBS buffer at pH 7.4 assessed as compound remaining measured at 60 mins by RF-MS analysis; assay type: physicochemical; details: read-out: Stability
[9] = Stability in human liver microsomes assessed as compound remaining at 2 uM measured at 15 mins in presence of NADPH by RF-MS analysis; assay type: ADME, Microsome; details: read-out: Stability
[10] = Stability in human liver microsomes assessed as compound remaining at 2 uM measured at 30 mins in presence of NADPH by RF-MS analysis; assay type: ADME, Microsome; details: read-out: Stability
[11] = Chemical stability in PBS buffer at pH 7.4 assessed as compound remaining measured at 120 mins by RF-MS analysis; assay type: physicochemical; details: read-out: Stability
[12] = Stability in human liver microsomes assessed as compound remaining at 2 uM measured at 60 mins in presence of NADPH by RF-MS analysis; assay type: ADME, Microsome; details: read-out: Stability
[13] = Apparent permeability of the compound in MDCK-MDR1 cells at 10 uM incubated for 1 hr by RF-MS analysis; assay type: ADME, cell-based, Canis lupus familiaris; details: dog
[14] = Stability in human plasma assessed as compound remaining at 2 uM measured at 15 mins by RF-MS analysis; assay type: ADME, cell-free; details: read-out: Stability
[15] = Stability in human plasma assessed as compound remaining at 2 uM measured at 120 mins by RF-MS analysis; assay type: ADME, cell-free; details: read-out: Stability
[16] = Chemical stability in PBS buffer at pH 7.4 assessed as compound remaining measured at 30 mins by RF-MS analysis; assay type: physicochemical; details: read-out: Stability
[17] = Plasma protein binding in human at 10 uM by rapid equilibrium dialysis based RF-MS analysis; assay type: ADME, cell-free; details: read-out: PB (converted)
[18] = Apparent permeability of the compound in MDCK-MDR1 cells assessed as drug recovery at 10 uM incubated for 1 hr by RF-MS analysis; assay type: ADME, cell-based, Canis lupus familiaris; details: dog, read-out: Drug recovery
[19] = Stability in human plasma assessed as compound remaining at 2 uM measured at 60 mins by RF-MS analysis; assay type: ADME, cell-free; details: read-out: Stability
[20] = Stability in human plasma assessed as compound remaining at 2 uM measured at 30 mins by RF-MS analysis; assay type: ADME, cell-free; details: read-out: Stability
[21] = Chemical stability in PBS buffer at pH 7.4 assessed as compound remaining measured at 15 mins by RF-MS analysis; assay type: physicochemical; details: read-out: Stability
[22] = Efflux ratio of apparent permeability across basolateral to apical side over apical to basolateral side in MDCK-MDR1 cells; assay type: ADME, cell-based, Canis lupus familiaris; details: dog
CCRF-CEM [23] = assay: Induction of apoptosis in human CCRF-CEM cells assessed as early apoptotic cells at 5 times IC50 incubated for 24 hrs by Annexin V and propidium iodide staining based flow cytometry analysis […]; assay type: functional
CCRF-CEM [24] = assay: Induction of apoptosis in human CCRF-CEM cells assessed as early apoptotic cells at 1 time IC50 incubated for 24 hrs by Annexin V and propidium iodide staining based flow cytometry analysis (reference value: […]); assay type: functional
CCRF-CEM [25] = assay: Induction of apoptosis in human CCRF-CEM cells assessed as late apoptotic cells at 5 times IC50 incubated for 24 hrs by Annexin V and propidium iodide staining based flow cytometry analysis […]; assay type: functional
CCRF-CEM [26] = assay: Induction of apoptosis in human CCRF-CEM cells assessed as necrotic cells at 5 times IC50 incubated for 24 hrs by Annexin V and propidium iodide staining based flow cytometry analysis […]; assay type: functional
HCT-116 [27] = assay: Antitumor activity in human HCT-116 cells cultured as spheroids assessed as inhibition of cell growth at 10 uM incubated for 3 days; assay type: functional; parameters: scale not given: the % may be the effect or the level left; details: time 3 day
CCRF-CEM [28] = assay: Induction of mitochondrial damage in human CCRF-CEM cells at >= 10 uM incubated for 4 hrs by light microscopic analysis; assay type: functional, cell-based
CCRF-CEM [29] = assay: Induction of apoptosis in human CCRF-CEM cells assessed as decrease in c-Myc expression at 1 to 5 times IC50 incubated for 24 hrs by Western blot analysis; assay type: functional, cell-based
CCRF-CEM [30] = assay: Induction of apoptosis in human CCRF-CEM cells assessed as necrotic cells at 1 time IC50 incubated for 24 hrs by Annexin V and propidium iodide staining based flow cytometry analysis (reference value: 0.0%); assay type: functional
CCRF-CEM [31] = assay: Induction of apoptosis in human CCRF-CEM cells assessed as accumulation of Bax protein expression at 1 to 5 times IC50 incubated for 24 hrs by Western blot analysis; assay type: functional, cell-based
CCRF-CEM [32] = assay: Induction of apoptosis in human CCRF-CEM cells assessed as accumulation of Bid protein expression at 1 to 5 times IC50 incubated for 24 hrs by Western blot analysis; assay type: functional, cell-based
CCRF-CEM [33] = assay: Induction of apoptosis in human CCRF-CEM cells assessed as late apoptotic cells at 1 time IC50 incubated for 24 hrs by Annexin V and propidium iodide staining based flow cytometry analysis (reference value: […]); assay type: functional
CCRF-CEM [34] = assay: Induction of apoptosis in human CCRF-CEM cells assessed as increase in Noxa expression at 1 to 5 times IC50 incubated for 24 hrs by Western blot analysis; assay type: functional, cell-based
HeLa = assay: Antitumor activity in human HeLa cells cultured as spheroids assessed as inhibition of spheroid opening at 1 uM incubated for 3 days; assay type: functional, cell-based; details: time 3.0 day
CCRF-CEM [35] = assay: Induction of apoptosis in human CCRF-CEM cells assessed as PARP cleavage at 1 to 5 times IC50 incubated for 24 hrs by Western blot analysis; assay type: functional, cell-based
CCRF-CEM [36] = assay: Induction of apoptosis in human CCRF-CEM cells assessed as viable cells at 1 time IC50 incubated for 24 hrs by Annexin V and propidium iodide staining based flow cytometry analysis […]; assay type: functional
CCRF-CEM [37] = assay: Induction of apoptosis in human CCRF-CEM cells assessed as viable cells at 5 times IC50 incubated for 24 hrs by Annexin V and propidium iodide staining based flow cytometry analysis […]; assay type: functional

| Structure (SMILES) | Drug uptake [1] | pIC50 (K562) | pIC50 [2] | IC50 at 72 h [3] [µM] | pIC50 [4] | pIC50 (CCRF-CEM [5]) | pIC50 (A549) | pIC50 (CEM-DNR) | pIC50 (HCT-116 [6]) | IC50 at 72 h [7] [µM] | pIC50 (U2OS) | other results |
| --- | --- | --- | --- | --- | --- | --- | --- | --- | --- | --- | --- | --- |
| C#CCOC(=O)[C@]12CC[C@@H](C(=C)C=O)[C@@H]1[C@H]1CC[C@@H]3[C@@]4(C)Cc5nccnc5C(C)(C)[C@@H]4CC[C@@]3(C)[C@]1(C)CC2 | Active | 5.80 | 5.20 | 6.6 | 5.85 | 6.37 | 5.77 | 5.77 | 5.15 | 7.2 | 5.85 | – |
| C=C(C)[C@@H]1CC[C@]2(C(=O)OCc3cn([C@H]4O[C@H](COC(C)=O)[C@@H](OC(C)=O)[C@H](OC(C)=O)[C@H]4OC(C)=O)nn3)CC[C@]3(C)[C@H](CC[C@@H]4[C@@]5(C)Cc6nccnc6C(C)(C)[C@@H]5CC[C@]43C)[C@@H]12 (stereo in doubt) | – | < 4.30 | < 4.30 | > 50 | < 4.30 | < 4.30 | < 4.30 | 4.31 | < 4.30 | > 50 | < 4.30 | remaining at 1 h [8]: 92.1%; remaining at 0.25 h, 2 µM [9]: 99.3%; remaining at 0.5 h, 2 µM [10]: 98.3%; remaining at 2 h [11]: 92.9%; remaining at 1 h, 2 µM [12]: 97.8%; Papp at 1 h, 10 µM [13]: 1.67 ×10⁻⁶ cm/s; remaining at 0.25 h, 2 µM [14]: 98.7%; remaining at 2 h, 2 µM [15]: 87.1%; remaining at 0.5 h [16]: 99.5%; fraction unbound at 10 µM [17]: 0.107; recovery at 1 h, 10 µM [18]: 87.7%; remaining at 1 h, 2 µM [19]: 88%; remaining at 0.5 h, 2 µM [20]: 91.2%; remaining at 0.25 h [21]: 98.9%; efflux ratio [22]: 7.1 |
| C#CCOC(=O)[C@]12CC[C@@H](C(=C)C)[C@@H]1[C@H]1CC[C@@H]3[C@@]4(C)Cc5nccnc5C(C)(C)[C@@H]4CC[C@@]3(C)[C@]1(C)CC2 | Not Active | < 4.30 | < 4.30 | > 50 | < 4.30 | 4.35 | < 4.30 | 4.30 | < 4.30 | > 50 | < 4.30 | – |
| C=C(C=O)[C@@H]1CC[C@]2(C(=O)O)CC[C@]3(C)[C@H](CC[C@@H]4[C@@]5(C)Cc6nccnc6C(C)(C)[C@@H]5CC[C@]43C)[C@@H]12 | – | – | – | – | – | – | – | – | – | – | – | Activity (CCRF-CEM [23]): 54%; Activity (CCRF-CEM [24]): 5.5%; Activity (CCRF-CEM [25]): 42.8%; Activity (CCRF-CEM [26]): 0.5%; Activity (HCT-116 [27]): 100%; Activity (CCRF-CEM [28]): inactive; Activity (CCRF-CEM [29]): Active; Activity (CCRF-CEM [30]): 5.8%; Activity (CCRF-CEM [31]): Active; Activity (CCRF-CEM [32]): Active; Activity (CCRF-CEM [33]): 3.6%; Activity (CCRF-CEM [34]): Active; Activity (HeLa): Active; Activity (CCRF-CEM [35]): Active; Activity (CCRF-CEM [36]): 85.1%; Activity (CCRF-CEM [37]): 2.7% |
